{
  "source": "patent US10716797B2",
  "about": "“Steroid alkaloids and compositions and kits thereof” (priority 2013, dated 2020)",
  "key": {"[1]": {"tested_on": "Staphylococcus aureus ATCC 29213", "assay": "MIC by microdilution, compound alone or in combination with an aminoglycoside", "type": "cell-based", "experimental": "(§1) Method. The minimal inhibitory concentrations (MICs), (i.e. lowest concentration of an antimicrobial that will inhibit the visible growth of a microorganism after incubation), of test compounds were determined against the normal or SCV strains of bacterial species from the Firmicutes phylum. Briefly, MICs were determined using the microdilution method in 96-well plates (Clinical and Laboratory Standards Institute (CLSI), 2011). Bacteria were inoculated at ˜10^5-10^6 CFU/mL and incubated at 35° C. for 20 h (normal strains) or 48 h (SCVs) in brain heart infusion (BHI) broth in order to allow SCVs to reach maximal growth as previously described (Mitchell et al., 2012). Then OD595 nm was read on a microplate reader. […] In this example the range of compound concentrations tested was 0.03 to 64 μg/ml using doubling increments. Strain Staphylococcus aureus NewbouldΔhemB (hemB) was also used in the experiments and is a laboratory-derived stable SCV created by the insertion of the macrolide resistance gene ermA in the hemB gene of this strain to create the SCV phenotype (defective electron transport chain and respiratory deficiency) through inactivation of hemin biosynthesis (Brouillette et al., 2004).\nThe various antibacterial activities of the test compounds against Staphylococcus aureus ATCC 29213, alone or in combination with gentamicin, and alone against the SCV strain hemB are reported in Table 1."}, "[2]": {"tested_on": "methicillin-resistant Staphylococcus aureus (MRSA) strains", "assay": "MIC against MRSA strains", "type": "cell-based", "experimental": "as §1\nIn the present Example the range of compound concentrations tested, using doubling increments, was 0.03 to 64 μg/ml for Compound 14 and up to 1024 μg/ml for gentamicin (GEN), kanamycin (KAN) and cefalexin (CEF) when these compounds were used alone. Compound 14 (Cpd 14) was used at a fixed concentration of 4 μg/ml when added to other antibiotics. The combination of CEF and KAN was used in a 3:2 ratio and doubling increments were used to test the antibacterial activity against MRSA in the absence or presence of Compound 14."}, "[3]": {"tested_on": "Listeria monocytogenes ATCC 13932 SCVs", "assay": "Time-kill experiments, Listeria monocytogenes SCV", "type": "cell-based", "conditions": "8 μg/mL; 8 h and 24 h; hydrochloride", "experimental": "Time-kill experiments were performed in order to determine whether the effect of test compounds on SCVs of bacterial species of the Firmicutes phylum is bacteriostatic (prevents growth) or bactericidal (kills cells).\nListeria monocytogenes ATCC 13932 SCVs were produced by plating a large inoculum (˜10^5 bacterial cells) on brain heart infusion agar (BHIA) plates containing various amounts of gentamicin in order to create a selective pressure for the generation of electron transport-deficient bacteria with the SCV phenotype, which are known to be less susceptible to aminoglycoside antibiotics (e.g., gentamicin). Indeed, aminoglycosides require the proton-motive force in order to penetrate the bacterium (Bryan and Kwan, 1981). As expected, SCV isolates were collected from such selective plates and were then passaged on drug-free medium to assess stability of the SCV phenotype. SCV isolates keeping the SCV phenotype after several passages on drug-free medium were then used for experiments described below.\nOne of the L. monocytogenes SCV described above was used in time-kill experiments as described in Example 22. […] At some time-points during growth at 35° C. (225 RPM), bacteria were sampled, serially diluted and plated on BHIA for colony-forming unit (CFU) determinations (i.e., viable bacterial counts). Plates were incubated for 48 h at 35° C. […]"}, "[4]": {"tested_on": "Staphylococcus aureus strain SH1000 grown in biofilms", "assay": "Calgary biofilm device, CFU and crystal violet", "type": "cell-based", "conditions": "hydrochloride", "experimental": "The bactericidal activity of tomatidine and Compound 14 in combination with gentamicin against Staphylococcus aureus was evaluated against this bacterium grown in a biofilm. Biofilms confer to bacteria protection from host defenses as well as tolerance to some antibiotics that target active and dividing cells. In addition, biofilms also provide protection against hydrodynamic shear forces, and biofilm infections are generally difficult to eradicate even in hosts with intact immune system (Costerton et al, 1999; Davies 2003).\nStaphylococcus aureus strain SH1000 of the normal phenotype (i.e., non-SCV) was used for its high ability to produce biofilms. The Calgary biofilm device (96-well plates with peg lids) was used to grow S. aureus in biofilms (Ceri et al, 1999) and to test the bactericidal activity of compounds (Moskowitz et al, 2004). Briefly, S. aureus SH1000 was grown in the Calgary biofilm device for 24 h at 35° C. until the biofilm forms on the pegs. The pegs were then washed, the medium was removed and the peg lids were dipped in fresh medium containing various amounts of test compounds. […] Replicate experiments were performed in order to quantify the residual amount of biofilm on pegs by crystal violet staining and spectrophotometry (absorbance [OD] at 562 nm)."}, "[5]": {"tested_on": "S. aureus SCV strain hemB", "assay": "Murine lung infection (pneumonia) model", "type": "in vivo, mouse", "conditions": "mice; intratracheal, 4 h post-infection; lungs 24 h post-infection; hydrochloride", "experimental": "Compound efficacy in a lung infection (pneumonia) model was evaluated as follow (Ragle et al, 2010; Mitchell et al, 2013): Mice (36) were challenged with an intra-tracheal injection of S. aureus SCV strain hemB (10^7 CFU) (10^7 CFU) (normal S. aureus could also have been used, mixed or not with P. aeruginosa for a co-infection). […] More particularly, 11 mice were untreated (Unrteated); 4 mice were treated with 10 μg of tomatidine (TO (10)); 4 mice were treated with 100 μg of tomatidine (TO (100)); 3 mice were treated with 10 μg of compound 14 (Compound 14 (10)); 8 mice were treated with 100 μg of compound 14 (Compound 14 (100)); and 6 mice were treated with 200 μg of compound 14 (Compound 14 (200)). Mice were euthanized 24 h post-infection. The lungs were recovered, homogenized, and bacterial CFU per g of tissue were determined by plating appropriate dilutions on Brain Hearth Infusion agar media (other media such as for example, mannitol salt agar for S. aureus or cetrimide plates for P. aeruginosa could be used).\nEach dot represents the CFU per g of tissue for one mouse. The boxes represent the CFU data distribution, the first quartile, the median and the third quartile. Statistical differences (P<0.001) between CFU recovered from treated and untreated animals are shown by asterisks (non-parametric Kruskal-Wallis ANOVA with Dunn's post test)."}},
  "note": "Entries after “also recorded” stand apart in the source; their conditions may differ.",
  "data": [
    {"substance": "3-(N-aminoethyl)-aminotomatidine hydrochloride [Compound 14]", "values": [
      {"measurement": "potentiaton fold with gentamicin", "setting": "[1]; MIC gentamicin alone / MIC gentamicin with compound at 4 μg/mL", "value": "4-8 x"},
      {"measurement": "potentiation / synergy with aminoglycoside (gentamicin) in words", "setting": "[1]; S. aureus ATCC 29213", "value": "retain the ability to potentiate"},
      {"measurement": "activity vs ATCC29213 in words", "setting": "[1]; compound tested alone", "value": "Active"},
      {"measurement": "MIC vs ATCC29213", "setting": "[1]; compound tested alone, hydrochloride", "value": "8 to 16", "unit": "µg/mL"},
      {"measurement": "potentiation activity with gentamicin in words", "setting": "[1]; compound used at 4 μg/mL", "value": "Moderate-high"},
      {"measurement": "Combination MIC vs ATCC29213 (MIC of gentamicin in combination with the compound)", "setting": "[1]; compound used at 4 μg/mL, MIC of gentamicin alone 0.5 μg/mL", "value": "0.06-0.12"},
      {"measurement": "potentiation fold on addition of Compound 14 to cefalexin:kanamycin combination", "setting": "[2]; MRSA strains resistant to both cefalexin and kanamycin", "value": 32, "unit": "fold"},
      {"measurement": "MIC on MRSA strains", "setting": "[2]; used alone, tested MRSA strains (kanamycin: two of the strains)", "value": 16, "unit": "µg/mL"},
      {"measurement": "bactericidal effect on L. monocytogenes SCV (CFU)", "setting": "[3]", "value": "efficiently kills; also recorded: superior bactericidal activity"},
      {"measurement": "killing of S. aureus in biofilms (Log 10 CFU/peg)", "setting": "[4]; alone or in combination with gentamicin, 24 h", "value": "efficiently kills; also recorded: bactericidal"},
      {"measurement": "biofilm disrupting activity (residual OD562 nm)", "setting": "[4]; used alone, Compound 14 at 4 μg/ml, TO at 8 μg/ml", "value": "superior biofilm disrupting activity; also recorded: can also disrupt biofilm formation"},
      {"measurement": "bacterial load in lungs (CFU per g of tissue)", "setting": "[5]", "value": "significantly reduce the bacterial load; also recorded: superior to tomatidine hydrochloride salt"},
      {"measurement": "solubility in DMSO", "value": 26, "unit": "mg/mL"}
    ]}
  ]
}
